Source: ChEMBL document CHEMBL5236617, “Rapid Evolution of a Fragment-like Molecule to Pan-Metallo-Beta-Lactamase Inhibitors: Initial Leads toward Clinical Candidates” (J Med Chem, 2022)
“And” between values parts separate entries of the source, which are not always exact repeats. Equal entries are not always repeated. Values belong to the compound of their own block, whether it stands above or below them. The source made the active and inactive calls. The calls are words filed in the database; no cut-off is given here.

Legend:
[1] = Inhibition of GST-tagged bacterial beta-lactamase […] expressed in Escherichia coli BL21(DE3) using CCF2-FA as substrate by fluorescence assay; set-up: species or system Bacteria
[2] = Inhibition of GST-tagged bacterial beta-lactamase IMP-1 expressed in Escherichia coli BL21(DE3) using CCF2-FA as substrate by fluorescence assay; set-up: species or system Bacteria
[3] = Inhibition of GST-tagged bacterial beta-lactamase VIM-1 expressed in Escherichia coli BL21(DE3) using CCF2-FA as substrate by fluorescence assay; set-up: species or system Bacteria
Escherichia coli [4] = assay: Potentiation of imipenem-induced antibacterial activity against NDM-1 expressing Escherichia coli assessed as imipenem MIC incubated for 22 to 24 hrs (reference value: 32 ug/ml); type: functional; conditions: time 22-24 hrs
Serratia marcescens = assay: Potentiation of imipenem-induced antibacterial activity against IMP-1 expressing Serratia marcescens assessed as imipenem MIC incubated for 22 to 24 hrs (reference value: 16 ug/ml); type: functional; conditions: time 22-24 hrs
Klebsiella pneumoniae [5] = assay: Potentiation of imipenem-induced antibacterial activity against VIM-1 expressing Klebsiella pneumoniae assessed as imipenem MIC incubated for 22 to 24 hrs (reference value: 16 ug/ml); type: functional; conditions: time 22-24 hrs
[6] = biological target: Voltage-gated inwardly rectifying potassium channel KCNH2 (Homo sapiens, UniProt Q12809); assay: Displacement of MK499 from human ERG
[7] = biological target: Sodium channel protein type 5 subunit alpha (Homo sapiens, UniProt Q14524); assay: Inhibition of Nav1.5 (unknown origin)
Cytochrome P450 3A4 = Cytochrome P450 3A4 (Homo sapiens, UniProt P08684); assay: Reversible inhibition of CYP3A4 (unknown origin); type: ADME
Cytochrome P450 2D6 = Cytochrome P450 2D6 (Homo sapiens, UniProt P10635); assay: Reversible inhibition of CYP2D6 (unknown origin); type: ADME
Cytochrome P450 2C9 = Cytochrome P450 2C9 (Homo sapiens, UniProt P11712); assay: Reversible inhibition of CYP2C9 (unknown origin); type: ADME
[8] = biological target: T1, Nuclear receptor subfamily 1 group I member 2 (Homo sapiens, UniProt O75469); assay: Inhibition of human PXR
T1 sequence (O75469 whole entry): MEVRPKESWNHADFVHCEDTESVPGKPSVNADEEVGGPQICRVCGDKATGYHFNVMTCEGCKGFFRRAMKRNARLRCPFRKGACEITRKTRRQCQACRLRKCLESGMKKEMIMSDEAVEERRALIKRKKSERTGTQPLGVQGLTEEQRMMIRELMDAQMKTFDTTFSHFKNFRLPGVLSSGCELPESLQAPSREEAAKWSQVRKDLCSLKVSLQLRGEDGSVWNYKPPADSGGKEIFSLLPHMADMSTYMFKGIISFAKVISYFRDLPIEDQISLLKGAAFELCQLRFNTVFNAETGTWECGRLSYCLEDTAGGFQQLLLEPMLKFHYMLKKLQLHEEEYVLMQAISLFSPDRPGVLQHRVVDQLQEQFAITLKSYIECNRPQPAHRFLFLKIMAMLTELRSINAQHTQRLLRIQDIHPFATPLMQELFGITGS

PXR (NR1I2) = biological target: T2, PXR (NR1I2) (Homo sapiens, UniProt O75469); assay: Inhibition of human PXR at 30 uM relative to control
T2 sequence (O75469 whole entry): T1 sequence (O75469 whole entry)

[9] = Plasma protein binding in C57BL/6 mouse assessed as unbound fraction; type: ADME, cell-free
[10] = Plasma protein binding in Wistar Han rat assessed as unbound fraction; type: ADME, cell-free
[11] = Plasma protein binding in human assessed as unbound fraction; type: ADME, cell-free
[12] = AUC in mouse at 5 mg/kg, iv; type: ADME, organism-based; set-up: dose 5 mg/kg, route iv; conditions: in vivo
[13] = MRT in mouse at 5 mg/kg, iv; type: ADME, organism-based; conditions: in vivo
[14] = Volume of distribution at steady state in mouse at 5 mg/kg, iv; type: ADME, organism-based; conditions: in vivo, read-out: Vdss
[15] = Clearance in mouse at 5 mg/kg, iv; type: ADME, organism-based; conditions: in vivo
[16] = AUC in mouse at 10 mg/kg, sc; type: ADME, organism-based; set-up: dose 10 mg/kg, route sc; conditions: in vivo
[17] = AUC in mouse at 50 mg/kg, sc; type: ADME, organism-based; set-up: dose 50 mg/kg, route sc; conditions: in vivo
[18] = Cmax in mouse at 10 mg/kg, sc; type: ADME, organism-based; set-up: dose 10 mg/kg, route sc; conditions: in vivo
[19] = Cmax in mouse at 50 mg/kg, sc; type: ADME, organism-based; set-up: dose 50 mg/kg, route sc; conditions: in vivo
[20] = Tmax in mouse at 10 mg/kg, sc; type: ADME, organism-based; conditions: in vivo
[21] = Tmax in mouse at 50 mg/kg, sc; type: ADME, organism-based; conditions: in vivo
CYP3A4 = CYP3A4 (Homo sapiens, UniProt P08684); assay: in vitro
[22] = Selectivity ratio of MITC50 for NDM-1 expressing Escherichia coli to IC50 for GST-tagged bacterial beta-lactamase […]
[23] = Selectivity ratio of MITC50 for IMP-1 expressing Serratia marcescens to IC50 for GST-tagged bacterial beta-lactamase IMP-1
[24] = Selectivity ratio of MITC50 for VIM-1 expressing Klebsiella pneumoniae to IC50 for GST-tagged bacterial beta-lactamase VIM-1
Klebsiella pneumoniae [25] = assay: Antibacterial activity against Klebsiella pneumoniae MB9249 expressing IMP-26 infected in cyclophosphamide treated DBA/2 mouse assessed as reduction in bacterial burden in kidney at 5 mg/kg, sc administered three times for 1 day and measured after 24 hrs post injection; type: functional, organism-based
Klebsiella pneumoniae [26] = assay: Antibacterial activity against Klebsiella pneumoniae MB9249 expressing IMP-26 infected in cyclophosphamide treated DBA/2 mouse assessed as reduction in bacterial burden in spleen at 5 mg/kg, sc administered three times for 1 day and measured after 24 hrs post injection; type: functional, organism-based
Escherichia coli [27] = assay: Antibacterial activity against Escherichia coli CLB30005 expressing NDM-1 assessed as growth inhibition in presence of ZnSO4; type: functional, organism-based

Sodium channel protein type 5 subunit alpha, sequence (Q14524 whole entry): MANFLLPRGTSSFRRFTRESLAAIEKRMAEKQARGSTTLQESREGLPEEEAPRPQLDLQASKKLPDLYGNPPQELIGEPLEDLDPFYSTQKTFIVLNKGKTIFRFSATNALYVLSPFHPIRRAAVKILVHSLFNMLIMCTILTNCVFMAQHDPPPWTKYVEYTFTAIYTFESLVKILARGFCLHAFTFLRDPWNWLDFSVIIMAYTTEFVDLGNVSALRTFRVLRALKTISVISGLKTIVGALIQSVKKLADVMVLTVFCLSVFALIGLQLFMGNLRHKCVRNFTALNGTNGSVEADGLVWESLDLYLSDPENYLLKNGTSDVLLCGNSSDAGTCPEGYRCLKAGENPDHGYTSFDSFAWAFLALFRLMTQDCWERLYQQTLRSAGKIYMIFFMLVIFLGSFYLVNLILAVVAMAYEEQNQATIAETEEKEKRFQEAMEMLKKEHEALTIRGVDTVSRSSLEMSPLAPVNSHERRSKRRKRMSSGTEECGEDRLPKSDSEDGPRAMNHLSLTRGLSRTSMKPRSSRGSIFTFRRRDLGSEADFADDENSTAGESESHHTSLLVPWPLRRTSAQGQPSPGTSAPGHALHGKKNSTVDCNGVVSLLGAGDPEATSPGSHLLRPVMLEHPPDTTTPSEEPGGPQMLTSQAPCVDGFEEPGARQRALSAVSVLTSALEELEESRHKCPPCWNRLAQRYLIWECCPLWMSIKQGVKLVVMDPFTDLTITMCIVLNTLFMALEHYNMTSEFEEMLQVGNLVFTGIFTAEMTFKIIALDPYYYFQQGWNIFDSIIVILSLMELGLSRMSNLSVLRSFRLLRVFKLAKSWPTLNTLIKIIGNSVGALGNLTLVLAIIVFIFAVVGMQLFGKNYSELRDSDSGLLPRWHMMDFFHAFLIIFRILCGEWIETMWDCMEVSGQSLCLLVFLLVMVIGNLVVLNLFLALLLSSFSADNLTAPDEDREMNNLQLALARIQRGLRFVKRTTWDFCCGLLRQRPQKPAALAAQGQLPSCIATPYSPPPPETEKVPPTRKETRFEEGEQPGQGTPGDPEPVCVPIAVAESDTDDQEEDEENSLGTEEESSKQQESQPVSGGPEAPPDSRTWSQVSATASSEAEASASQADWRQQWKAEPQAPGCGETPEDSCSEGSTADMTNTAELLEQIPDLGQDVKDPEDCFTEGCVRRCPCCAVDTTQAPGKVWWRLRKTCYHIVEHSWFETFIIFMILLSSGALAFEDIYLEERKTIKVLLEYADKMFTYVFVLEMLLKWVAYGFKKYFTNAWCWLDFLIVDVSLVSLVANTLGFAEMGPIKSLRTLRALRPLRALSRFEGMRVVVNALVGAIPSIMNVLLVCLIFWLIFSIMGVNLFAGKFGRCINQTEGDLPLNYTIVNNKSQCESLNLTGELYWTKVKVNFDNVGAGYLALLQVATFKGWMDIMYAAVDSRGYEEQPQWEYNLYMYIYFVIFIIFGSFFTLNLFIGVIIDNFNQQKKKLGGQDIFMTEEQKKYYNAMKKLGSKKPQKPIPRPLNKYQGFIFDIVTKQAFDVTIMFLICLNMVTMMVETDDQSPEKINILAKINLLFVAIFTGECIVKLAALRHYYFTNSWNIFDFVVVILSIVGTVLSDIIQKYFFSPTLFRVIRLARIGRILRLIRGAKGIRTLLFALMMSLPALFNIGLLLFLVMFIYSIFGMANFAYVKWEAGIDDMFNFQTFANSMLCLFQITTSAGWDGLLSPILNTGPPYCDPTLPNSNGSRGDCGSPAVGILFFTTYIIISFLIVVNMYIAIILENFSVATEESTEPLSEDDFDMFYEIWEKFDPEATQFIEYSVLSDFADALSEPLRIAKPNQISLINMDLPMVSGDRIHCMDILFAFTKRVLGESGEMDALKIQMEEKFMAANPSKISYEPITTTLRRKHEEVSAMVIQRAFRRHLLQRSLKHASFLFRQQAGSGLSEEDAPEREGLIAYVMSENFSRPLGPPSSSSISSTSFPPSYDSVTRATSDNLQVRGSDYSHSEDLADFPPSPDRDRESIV
Voltage-gated inwardly rectifying potassium channel KCNH2, sequence (Q12809 whole entry): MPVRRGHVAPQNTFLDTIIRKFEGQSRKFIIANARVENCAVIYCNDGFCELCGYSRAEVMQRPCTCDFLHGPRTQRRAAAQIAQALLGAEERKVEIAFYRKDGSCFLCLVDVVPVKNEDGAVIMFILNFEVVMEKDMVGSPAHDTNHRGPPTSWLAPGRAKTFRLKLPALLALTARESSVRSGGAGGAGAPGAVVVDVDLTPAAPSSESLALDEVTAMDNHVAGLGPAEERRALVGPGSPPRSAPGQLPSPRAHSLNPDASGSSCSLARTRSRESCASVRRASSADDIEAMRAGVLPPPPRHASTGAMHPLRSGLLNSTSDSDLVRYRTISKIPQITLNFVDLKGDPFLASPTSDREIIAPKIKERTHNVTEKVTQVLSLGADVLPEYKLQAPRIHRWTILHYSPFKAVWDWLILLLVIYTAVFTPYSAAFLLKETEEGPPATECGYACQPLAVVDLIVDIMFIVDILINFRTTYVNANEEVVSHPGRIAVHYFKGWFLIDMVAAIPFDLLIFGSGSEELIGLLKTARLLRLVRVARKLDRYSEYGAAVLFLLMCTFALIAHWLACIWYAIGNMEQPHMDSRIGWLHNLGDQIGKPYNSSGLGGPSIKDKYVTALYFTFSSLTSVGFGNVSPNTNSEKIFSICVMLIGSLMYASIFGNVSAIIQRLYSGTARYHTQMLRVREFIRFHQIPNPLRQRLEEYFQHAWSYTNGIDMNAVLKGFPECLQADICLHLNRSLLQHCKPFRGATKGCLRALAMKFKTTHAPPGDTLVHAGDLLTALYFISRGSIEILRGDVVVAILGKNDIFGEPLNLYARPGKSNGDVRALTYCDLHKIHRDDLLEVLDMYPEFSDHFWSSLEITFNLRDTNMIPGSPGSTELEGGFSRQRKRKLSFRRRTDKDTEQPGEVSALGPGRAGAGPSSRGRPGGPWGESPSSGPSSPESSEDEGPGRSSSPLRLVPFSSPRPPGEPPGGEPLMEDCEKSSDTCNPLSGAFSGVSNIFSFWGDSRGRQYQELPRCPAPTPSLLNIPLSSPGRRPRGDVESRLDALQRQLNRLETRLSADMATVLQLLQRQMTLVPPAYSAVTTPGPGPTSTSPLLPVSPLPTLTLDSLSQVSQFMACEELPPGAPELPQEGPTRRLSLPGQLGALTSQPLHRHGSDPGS
Cytochrome P450 2C9, sequence (P11712 whole entry): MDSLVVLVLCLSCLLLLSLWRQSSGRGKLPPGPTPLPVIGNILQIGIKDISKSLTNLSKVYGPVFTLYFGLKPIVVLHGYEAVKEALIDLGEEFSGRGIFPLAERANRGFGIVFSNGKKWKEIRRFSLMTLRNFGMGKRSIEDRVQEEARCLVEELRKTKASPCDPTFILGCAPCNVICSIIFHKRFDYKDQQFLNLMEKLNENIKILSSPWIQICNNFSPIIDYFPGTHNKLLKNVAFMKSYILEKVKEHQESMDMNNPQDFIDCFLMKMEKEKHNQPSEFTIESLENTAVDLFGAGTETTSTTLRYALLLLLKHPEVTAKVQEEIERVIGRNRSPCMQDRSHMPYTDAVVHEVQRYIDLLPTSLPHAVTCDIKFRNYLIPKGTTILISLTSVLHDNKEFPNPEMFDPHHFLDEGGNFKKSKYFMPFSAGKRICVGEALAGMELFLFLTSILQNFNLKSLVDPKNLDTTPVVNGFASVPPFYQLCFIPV
CYP3A4, sequence (P08684 whole entry): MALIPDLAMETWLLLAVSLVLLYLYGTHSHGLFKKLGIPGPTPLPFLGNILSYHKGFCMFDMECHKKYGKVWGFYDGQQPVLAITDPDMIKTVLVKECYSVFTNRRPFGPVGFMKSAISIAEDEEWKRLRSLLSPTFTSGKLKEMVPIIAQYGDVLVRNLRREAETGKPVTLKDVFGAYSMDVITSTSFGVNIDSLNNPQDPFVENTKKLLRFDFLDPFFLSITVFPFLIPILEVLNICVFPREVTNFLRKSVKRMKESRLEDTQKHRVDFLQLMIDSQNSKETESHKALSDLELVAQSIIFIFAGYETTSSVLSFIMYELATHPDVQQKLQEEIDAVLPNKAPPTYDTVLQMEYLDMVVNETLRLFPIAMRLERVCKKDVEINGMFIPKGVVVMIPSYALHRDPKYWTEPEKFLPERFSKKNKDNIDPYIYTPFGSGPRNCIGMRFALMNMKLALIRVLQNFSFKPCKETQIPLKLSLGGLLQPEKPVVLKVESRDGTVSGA
Cytochrome P450 3A4, sequence (P08684 whole entry): as above
Cytochrome P450 2D6, sequence (P10635 whole entry): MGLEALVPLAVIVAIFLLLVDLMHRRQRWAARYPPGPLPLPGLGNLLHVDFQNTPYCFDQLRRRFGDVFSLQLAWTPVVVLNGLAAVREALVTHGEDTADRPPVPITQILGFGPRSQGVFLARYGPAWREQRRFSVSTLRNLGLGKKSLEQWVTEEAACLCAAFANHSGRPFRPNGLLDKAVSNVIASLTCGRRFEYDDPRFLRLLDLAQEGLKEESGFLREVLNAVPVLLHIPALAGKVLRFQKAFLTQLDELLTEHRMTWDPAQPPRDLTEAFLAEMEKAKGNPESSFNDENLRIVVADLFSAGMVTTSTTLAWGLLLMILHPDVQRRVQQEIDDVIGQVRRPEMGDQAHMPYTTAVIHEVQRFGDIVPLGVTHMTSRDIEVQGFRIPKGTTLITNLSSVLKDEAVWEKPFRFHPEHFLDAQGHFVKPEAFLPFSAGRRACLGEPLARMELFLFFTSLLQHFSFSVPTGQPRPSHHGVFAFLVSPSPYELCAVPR

SMILES: NS(=O)(=O)c1ccnc(-c2ccc(CO)cc2)c1-c1nn[nH]n1
IC50 [1]: 36 nM
IC50 [2]: 767 nM
IC50 [3]: 4130 nM
MITC95 (Escherichia coli [4]): 2.3 µM
MITC95 (Serratia marcescens): 37 µM
MITC95 (Klebsiella pneumoniae [5]): >200 µM

SMILES: NS(=O)(=O)c1nccc(-c2ccc(CO)cc2)c1-c1nnn[nH]1
IC50 [6]: > 60000 nM
IC50 [7]: > 30000 nM
IC50 (Cytochrome P450 3A4): > 30000 nM
IC50 (Cytochrome P450 2D6): > 30000 nM
IC50 (Cytochrome P450 2C9): > 30000 nM
IC50 [8]: > 30000 nM
Emax at 30 µM (PXR (NR1I2)): 1.94%
fraction unbound [9]: 0.43
fraction unbound [10]: 0.3
fraction unbound [11]: 0.23
AUC [12]: 27.1 µM·h
MRT [13]: 312 min
Vd [14]: 2.97 L/kg
clearance [15]: 9.33 mL/min/kg
AUC [16]: 27.4 µM·h
AUC [17]: 111 µM·h
Cmax [18]: 13.4 µM
Cmax [19]: 69.1 µM
Tmax [20]: 49.8 min
Tmax [21]: 30 min
IC50 shift (CYP3A4): 1

SMILES: NS(=O)(=O)c1cccc(-c2ccnc(CO)c2)c1-c1nn[nH]n1
MITC95 (Escherichia coli [4]): 0.39 µM
MITC95 (Serratia marcescens): 50 µM

SMILES: NS(=O)(=O)c1cncc(-c2ccc(CO)cc2)c1-c1nn[nH]n1
IC50 [1]: 21 nM
IC50 [2]: 678 nM
IC50 [3]: 670 nM
MITC95 (Escherichia coli [4]): 1.56 µM
MITC95 (Klebsiella pneumoniae [5]): 100 µM

SMILES: C[C@@H](O)[C@H]1C(=O)N2C(C(=O)O)=C(SCCNC=N)C[C@H]12
Activity (Klebsiella pneumoniae [25]): Active
Activity (Klebsiella pneumoniae [26]): Active

SMILES: NS(=O)(=O)c1cccc(-c2cccnc2)c1-c1nn[nH]n1
IC50 [1]: 24 nM
IC50 [2]: 1780 nM
IC50 [3]: 269 nM
MITC95 (Escherichia coli [4]): 0.39 µM
MITC95 (Serratia marcescens): 50 µM
MITC95 (Klebsiella pneumoniae [5]): 50 µM
Selectivity ratio [22]: 16
Selectivity ratio [23]: 28
Selectivity ratio [24]: 185

Second part, led by results:

IC50 [1]: 2.4 nM
IC50 [2]: 46 nM
IC50 [3]: 58 nM
SMILES: NS(=O)(=O)c1cccc(-c2ccc(CO)cc2)c1-c1nn[nH]n1
MITC95 (Klebsiella pneumoniae [5]): 50 µM

IC50 [1]: 36 nM
IC50 [2]: 485 nM
IC50 [3]: 285 nM
Selectivity ratio [23]: 19
Selectivity ratio [24]: 87
SMILES: NS(=O)(=O)c1cccc(-c2ccncc2)c1-c1nn[nH]n1
MITC95 (Escherichia coli [4]): 0.45 µM
MITC95 (Serratia marcescens): 9.37 µM
MITC95 (Klebsiella pneumoniae [5]): 25 µM
Selectivity ratio [22]: 12

IC50 [1]: 3.3 nM
IC50 [2]: 17 nM
IC50 [3]: 7 nM
SMILES: Nc1cc(-c2nnn[nH]2)c(S(N)(=O)=O)cc1S(N)(=O)=O

IC50 [1]: 44 nM
IC50 [2]: 2 nM
IC50 [3]: 22 nM
SMILES: c1ccc(-c2ccccc2-c2nn[nH]n2)cc1

IC50 [1]: 3.9 nM and 3.7 nM
IC50 [2]: 64 nM
IC50 [3]: 57.5 nM and 57 nM
Selectivity ratio [23]: 215
Selectivity ratio [24]: 2230
SMILES: Cc1ccc(-c2cccc(S(N)(=O)=O)c2-c2nnn[nH]2)cc1
MITC95 (Escherichia coli [4]): 1.48 µM
MITC95 (Serratia marcescens): 13.8 µM
MITC95 (Klebsiella pneumoniae [5]): 127 µM
Selectivity ratio [22]: 400
Activity (Escherichia coli [27]): inactive
